Experimental data reported in patent US7767665B2, “1,3-benzothiazinone derivatives and use thereof” (Takeda Pharmaceutical Company Limited, priority 2001, dated 2010).
Structures can show the parent of a compound that is named as a salt.

melting point | SMILES
238 °C (dec.) | Cl.NCCc1ccnc(-c2nc(=O)c3ccccc3s2)c1
102 to 103.2 °C | CCOP(=O)(CCc1ccnc(-c2nc(=O)c3ccccc3s2)c1)OCC
219.4 to 221.4 °C | Cl.O=c1nc(-c2cc(C3CCCN3)ccn2)sc2ccccc12 (centres unmarked)
95.2 to 97.6 °C | NCCCCCCNC(=O)c1cccc(-c2nc(=O)c3ccccc3s2)n1 (as salt: hydrochloride) [Example 107, N-(6-Aminohexyl)-6-(4-oxo-4H-1,3-benzothiazin-2-yl)-2-pyridinecarboxamide hydrochloride]
184.5 to 186.5 °C | NCc1cccc(-c2nc(=O)c3ccccc3s2)n1 (as salt: trifluoroacetic acid salt) [Example 203, 2-[6-(Aminomethyl)-2-pyridyl]-4H-1,3-benzothiazine-4-one trifluoroacetic acid salt]
206.2 to 207.1 °C | NCCc1cccc(-c2nc(=O)c3ccccc3s2)n1 (as salt: trifluoroacetic acid salt) [Example 220, 2-[6-(2-Aminoethyl)-2-pyridyl]-4H-1,3-benzothiazine-4-one trifluoroacetic acid salt]
209 to 210.7 °C | NCCc1ccnc(-c2nc(=O)c3ccccc3s2)c1 (as salt: trifluoroacetic acid salt) [Example 221, 2-[4-(2-Aminoethyl)-2-pyridyl]-4H-1,3-benzothiazine-4-one trifluoroacetic acid salt]
212 °C (dec.) | NCCc1ccnc(-c2nc(=O)c3ccc(Cl)cc3s2)c1 (as salt: trifluoroacetic acid salt) [Example 223, 2-[4-(2-Aminoethyl)-2-pyridyl]-7-chloro-4H-1,3-benzothiazine-4-one trifluoroacetic acid salt]
187.5 to 189 °C | O=c1nc(-c2cc(C3CCCN3)ccn2)sc2ccccc12 (centres unmarked) (as salt: trifluoroacetic acid salt) [Example 353, 2-[4-(2-Pyrrolidinyl)-2-pyridyl]-4H-1,3-benzothiazine-4-one trifluoroacetic acid salt]
170 to 171.5 °C | O=c1nc(-c2ccco2)sc2ccccc12 [Example 1, 2-(2-Furyl)-4H-1,3-benzothiazine-4-one]
149.9 to 151.6 °C | Cc1cccnc1-c1nc(=O)c2ccccc2s1 [Example 8, 2-(3-Methyl-2-pyridyl)-4H-1,3-benzothiazine-4-one]
269.4 to 270.1 °C | O=c1nc(-c2ccccn2)sc2ccc(Cl)cc12 [Example 9, 6-Chloro-2-(2-pyridyl)-4H-1,3-benzothiazine-4-one]
253 to 253.7 °C | O=c1nc(-c2ccccn2)sc2ccc(Br)cc12 [Example 11, 6-Bromo-2-(2-pyridyl)-4H-1,3-benzothiazine-4-one]
219.8 to 220.8 °C | Cc1ccc2sc(-c3ccccn3)nc(=O)c2c1 [Example 13, 6-Methyl-2-(2-pyridyl)-4H-1,3-benzothiazine-4-one]
202.4 to 203.2 °C | O=c1nc(-c2ccc[nH]2)sc2ccccc12 [Example 15, 2-(1H-Pyrrol-2-yl)-4H-1,3-benzothiazine-4-one]
214.1 to 214.6 °C | COc1ccnc(-c2nc(=O)c3ccccc3s2)c1 [Example 25, 2-(4-Methoxy-2-pyridyl)-4H-1,3-benzothiazine-4-one]
170 to 172.2 °C | CCOC(=O)c1cccc(-c2nc(=O)c3ccccc3s2)n1 [Example 26, Ethyl 6-(4-oxo-4H-1,3-benzothiazin-2-yl)-2-pyridinecarboxylate]
235.9 to 236.7 °C | CCOC(=O)c1ccnc(-c2nc(=O)c3ccccc3s2)c1 [Example 27, Ethyl 2-(4-oxo-4H-1,3-benzothiazin-2-yl)isonicotinate]
210.1 to 210.6 °C | CCCNc1ccc(-c2nc(=O)c3ccccc3s2)cn1 [Example 31, 2-[6-(Propylamino)-3-pyridyl]-4H-1,3-benzothiazine-4-one]

More lines, now with the values behind:

SMILES | melting point
Cc1cccc2c(=O)nc(-c3cccc(C(=O)NCCCCCCN)n3)sc12.Cl | 240 °C
CCOP(=O)(Cc1cccc(-c2nc(=O)c3ccccc3s2)n1)OCC | 115.5 to 116.5 °C
CCOP(=O)(CCc1cccc(-c2nc(=O)c3ccccc3s2)n1)OCC | 148.8 to 149.8 °C
CCOP(=O)(CCc1ccnc(-c2nc(=O)c3ccc(Cl)cc3s2)c1)OCC | 137.7 to 139.1 °C
O=c1nc(-c2cccc(CN3CCC(O)(c4ccc(Cl)cc4)CC3)n2)sc2ccccc12 | 151 to 153 °C
O=c1nc(-c2cccs2)sc2ccccc12 [Example 2, 2-(2-Thienyl)-4H-1,3-benzothiazine-4-one] | 157.7 to 158.2 °C
O=c1nc(-c2ccc3ccccc3n2)sc2ccccc12 [Example 3, 2-(2-Quinolinyl)-4H-1,3-benzothiazine-4-one] | 262.7 to 263.4 °C
O=c1nc(-c2cnc3ccccc3c2)sc2ccccc12 [Example 4, 2-(3-Quinolinyl)-4H-1,3-benzothiazine-4-one] | 216 to 217 °C
CC(C)(C)OC(=O)CCc1cccc(-c2nc(=O)c3ccc(Cl)cc3s2)n1 [Example 5, tert-Butyl 3-[6-(7-chloro-4-oxo-4H-1,3-benzothiazin-2-yl)-2-pyridyl]propanoate] | 167.9 to 168.2 °C
O=C(O)CCc1cccc(-c2nc(=O)c3ccc(Cl)cc3s2)n1 [Example 6, 3-[6-(7-Chloro-4-oxo-4H-1,3-benzothiazin-2-yl)-2-pyridyl]propionic acid] | 224.4 to 224.7 °C
Cc1cccc2c(=O)nc(-c3ccccn3)sc12 [Example 12, 8-Methyl-2-(2-pyridyl)-4H-1,3-benzothiazine-4-one] | 197.8 to 198.5 °C
COc1cc2sc(-c3ccccn3)nc(=O)c2cc1OC [Example 14, 6,7-Dimethoxy-2-(2-pyridyl)-4H-1,3-benzothiazine-4-one] | 236.3 to 237.5 °C
Cc1ccc(-c2nc(=O)c3ccccc3s2)n1C [Example 16, 2-(1,5-Dimethyl-1H-pyrrol-2-yl)-4H-1,3-benzothiazine-4-one] | 194.3 to 195.7 °C
Cc1cccc2sc(-c3ccccn3)nc(=O)c12 [Example 17, 5-Methyl-2-(2-pyridyl)-4H-1,3-benzothiazine-4-one] | 150.8 to 151.3 °C
COc1cccc2c(=O)nc(-c3ccccn3)sc12 [Example 18, 8-Methoxy-2-(2-pyridyl)-4H-1,3-benzothiazine-4-one] | 191.2 to 191.4 °C
O=c1nc(-c2ccccn2)sc2ncccc12 [Example 22, 2-(2-Pyridyl)-4H-pyrido[3,2-e][1,3]thiazine-4-one] | 234.7 to 234.9 °C
Cc1cc(C)c2sc(-c3ccccn3)nc(=O)c2c1 [Example 24, 6,8-Dimethyl-2-(2-pyridyl)-4H-1,3-benzothiazine-4-one] | 245 to 245.8 °C
O=c1nc(-c2ccc(NCc3ccccc3)nc2)sc2ccccc12 [Example 32, 2-[6-(Benzylamino)-3-pyridyl]-4H-1,3-benzothiazine-4-one] | 194.3 to 196.2 °C
O=c1nc(-c2ccc(N3CCCC3)nc2)sc2ccccc12 [Example 33, 2-[6-(1-Pyrrolidinyl)-3-pyridyl]-4H-1,3-benzothiazine-4-one] | 221 to 223.1 °C
